Experimental data as given in ChEMBL document CHEMBL4665869, “New thiazolopyrimidine as anticancer agents: Synthesis, biological evaluation, DNA binding, molecular modeling and ADMET study” (Bioorg Med Chem Lett, 2020).
≈ marks a conversion by molar mass, not a printed value.

How the values were obtained:
MOLT-4 = assay: Growth inhibition of human MOLT-4 cells at 10 uM relative to control; format: functional; settings: read-out: GI
MDA-MB-468 = assay: Growth inhibition of human MDA-MB-468 cells at 10 uM relative to control; format: functional; settings: read-out: GI
SN12C = assay: Growth inhibition of human SN12C cells at 10 uM relative to control; format: functional; settings: read-out: GI
MCF7 = assay: Growth inhibition of human MCF7 cells at 10 uM relative to control; format: functional; settings: read-out: GI
MDA-MB-231 = assay: Growth inhibition of human MDA-MB-231 cells at 10 uM relative to control; format: functional; settings: read-out: GI
HCC 2998 = assay: Growth inhibition of human HCC 2998 cells at 10 uM relative to control; format: functional; settings: read-out: GI
HT-29 = assay: Growth inhibition of human HT-29 cells at 10 uM relative to control; format: functional; settings: read-out: GI
CCRF-CEM = assay: Growth inhibition of human CCRF-CEM cells at 10 uM relative to control; format: functional; settings: read-out: GI
SF-295 = assay: Growth inhibition of human SF-295 cells at 10 uM relative to control; format: functional; settings: read-out: GI
HOP-62 = assay: Growth inhibition of human HOP-62 cells at 10 uM relative to control; format: functional; settings: read-out: GI
KM12 = assay: Growth inhibition of human KM12 cells at 10 uM relative to control; format: functional; settings: read-out: GI
SNB-19 = assay: Growth inhibition of human SNB-19 cells at 10 uM relative to control; format: functional; settings: read-out: GI
U-251 = assay: Growth inhibition of human U-251 cells at 10 uM relative to control; format: functional; settings: read-out: GI
UACC-257 = assay: Growth inhibition of human UACC-257 cells at 10 uM relative to control; format: functional; settings: read-out: GI
UACC-62 = assay: Growth inhibition of human UACC-62 cells at 10 uM relative to control; format: functional; settings: read-out: GI
786-0 = assay: Growth inhibition of human 786-0 cells at 10 uM relative to control; format: functional; settings: read-out: GI
Hs-578T = assay: Growth inhibition of human Hs-578T cells at 10 uM relative to control; format: functional; settings: read-out: GI
COLO 205 = assay: Growth inhibition of human COLO 205 cells at 10 uM relative to control; format: functional; settings: read-out: GI
HOP-92 = assay: Growth inhibition of human HOP-92 cells at 10 uM relative to control; format: functional; settings: read-out: GI
DU-145 = assay: Growth inhibition of human DU-145 cells at 10 uM relative to control; format: functional; settings: read-out: GI
RPMI-8226 = assay: Growth inhibition of human RPMI-8226 cells at 10 uM relative to control; format: functional; settings: read-out: GI
A549 = assay: Growth inhibition of human A549 cells at 10 uM relative to control; format: functional; settings: read-out: GI
A498 = assay: Growth inhibition of human A498 cells at 10 uM relative to control; format: functional; settings: read-out: GI
ACHN = assay: Growth inhibition of human ACHN cells at 10 uM relative to control; format: functional; settings: read-out: GI
SK-OV-3 = assay: Growth inhibition of human SK-OV-3 cells at 10 uM relative to control; format: functional; settings: read-out: GI
NCI-H23 = assay: Growth inhibition of human NCI-H23 cells at 10 uM relative to control; format: functional; settings: read-out: GI
M14 = assay: Growth inhibition of human M14 cells at 10 uM relative to control; format: functional; settings: read-out: GI
IGROV-1 = assay: Growth inhibition of human IGROV-1 cells at 10 uM relative to control; format: functional; settings: read-out: GI
Malme-3M = assay: Growth inhibition of human Malme-3M cells at 10 uM relative to control; format: functional; settings: read-out: GI
OVCAR-8 = assay: Growth inhibition of human OVCAR-8 cells at 10 uM relative to control; format: functional; settings: read-out: GI
MDA-MB-435 = assay: Growth inhibition of human MDA-MB-435 cells at 10 uM relative to control; format: functional; settings: read-out: GI
OVCAR-5 = assay: Growth inhibition of human OVCAR-5 cells at 10 uM relative to control; format: functional; settings: read-out: GI
DNA = assay: Displacement of methyl green from DNA (unknown origin) assessed as DNA intercalation after 24 hrs by colorimetric assay; format: nucleic-acid assay
SF-539 = assay: Growth inhibition of human SF-539 cells at 10 uM relative to control; format: functional; settings: read-out: GI
RXF 393 = assay: Growth inhibition of human RXF 393 cells at 10 uM relative to control; format: functional; settings: read-out: GI
NCI-H322M = assay: Growth inhibition of human NCI-H322M cells at 10 uM relative to control; format: functional; settings: read-out: GI
K562 = assay: Growth inhibition of human K562 cells at 10 uM relative to control; format: functional; settings: read-out: GI
BT-549 = assay: Growth inhibition of human BT-549 cells at 10 uM relative to control; format: functional; settings: read-out: GI
NCI-H522 = assay: Growth inhibition of human NCI-H522 cells at 10 uM relative to control; format: functional; settings: read-out: GI
CAKI-1 = assay: Growth inhibition of human CAKI-1 cells at 10 uM relative to control; format: functional; settings: read-out: GI
OVCAR-4 = assay: Growth inhibition of human OVCAR-4 cells at 10 uM relative to control; format: functional; settings: read-out: GI
SNB-75 = assay: Growth inhibition of human SNB-75 cells at 10 uM relative to control; format: functional; settings: read-out: GI
SK-MEL-5 = assay: Growth inhibition of human SK-MEL-5 cells at 10 uM relative to control; format: functional; settings: read-out: GI
LOX IMVI = assay: Growth inhibition of human LOX IMVI cells at 10 uM relative to control; format: functional; settings: read-out: GI
NCI-H460 = assay: Growth inhibition of human NCI-H460 cells at 10 uM relative to control; format: functional; settings: read-out: GI
HL-60(TB) = assay: Growth inhibition of human HL-60(TB) cells at 10 uM relative to control; format: functional; settings: read-out: GI
PC-3 = assay: Growth inhibition of human PC-3 cells at 10 uM relative to control; format: functional; settings: read-out: GI
HCT-15 = assay: Growth inhibition of human HCT-15 cells at 10 uM relative to control; format: functional; settings: read-out: GI
HCT-116 = assay: Growth inhibition of human HCT-116 cells at 10 uM relative to control; format: functional; settings: read-out: GI
T47D = assay: Growth inhibition of human T47D cells at 10 uM relative to control; format: functional; settings: read-out: GI
TK-10 = assay: Growth inhibition of human TK-10 cells at 10 uM relative to control; format: functional; settings: read-out: GI
SF-268 = assay: Growth inhibition of human SF-268 cells at 10 uM relative to control; format: functional; settings: read-out: GI
NCI/ADR-RES = assay: Growth inhibition of human NCI/ADR-RES cells at 10 uM relative to control; format: functional; settings: read-out: GI
SW-620 = assay: Growth inhibition of human SW-620 cells at 10 uM relative to control; format: functional; settings: read-out: GI
SR = assay: Growth inhibition of human SR cells at 10 uM relative to control; format: functional; settings: read-out: GI
SK-MEL-2 = assay: Growth inhibition of human SK-MEL-2 cells at 10 uM relative to control; format: functional; settings: read-out: GI
NCI-H226 = assay: Growth inhibition of human NCI-H226 cells at 10 uM relative to control; format: functional; settings: read-out: GI
UO-31 = assay: Growth inhibition of human UO-31 cells at 10 uM relative to control; format: functional; settings: read-out: GI
SK-MEL-28 = assay: Growth inhibition of human SK-MEL-28 cells at 10 uM relative to control; format: functional; settings: read-out: GI

Structure (SMILES): CCOC(=O)C1=CSC2=NC(/C=C/c3cc(OC)c(OC)c(OC)c3)=CC(c3cc(OC)c(OC)c(OC)c3)N12 (centres undefined)
- inhibition of growth at 10 µM (MOLT-4): 25.1%
- inhibition of growth at 10 µM (MDA-MB-468): < 10%
- inhibition of growth at 10 µM (SN12C): < 10%
- inhibition of growth at 10 µM (MCF7): 28.9%
- inhibition of growth at 10 µM (MDA-MB-231): 14.5%
- inhibition of growth at 10 µM (HCC 2998): < 10%
- inhibition of growth at 10 µM (HT-29): 13%
- inhibition of growth at 10 µM (CCRF-CEM): 69.3%
- inhibition of growth at 10 µM (SF-295): < 10%
- inhibition of growth at 10 µM (HOP-62): < 10%
- inhibition of growth at 10 µM (KM12): 22.7%
- inhibition of growth at 10 µM (SNB-19): < 10%
- inhibition of growth at 10 µM (U-251): < 10%
- inhibition of growth at 10 µM (UACC-257): 17.2%
- inhibition of growth at 10 µM (UACC-62): 18%
- inhibition of growth at 10 µM (786-0): < 10%
- inhibition of growth at 10 µM (Hs-578T): < 10%
- inhibition of growth at 10 µM (COLO 205): < 10%
- inhibition of growth at 10 µM (HOP-92): < 10%
- inhibition of growth at 10 µM (DU-145): < 10%
- inhibition of growth at 10 µM (RPMI-8226): 18%
- inhibition of growth at 10 µM (A549): < 10%
- inhibition of growth at 10 µM (A498): < 10%
- inhibition of growth at 10 µM (ACHN): < 10%
- inhibition of growth at 10 µM (SK-OV-3): < 10%
- inhibition of growth at 10 µM (NCI-H23): < 10%
- inhibition of growth at 10 µM (M14): < 10%
- inhibition of growth at 10 µM (IGROV-1): < 10%
- inhibition of growth at 10 µM (Malme-3M): < 10%
- inhibition of growth at 10 µM (OVCAR-8): 32%
- inhibition of growth at 10 µM (MDA-MB-435): < 10%
- inhibition of growth at 10 µM (OVCAR-5): < 10%
- IC50 (DNA): 43.92 µg/mL (≈ 77.2 µM)
- inhibition of growth at 10 µM (SF-539): < 10%
- inhibition of growth at 10 µM (RXF 393): < 10%
- inhibition of growth at 10 µM (NCI-H322M): < 10%
- inhibition of growth at 10 µM (K562): 35.7%
- inhibition of growth at 10 µM (BT-549): < 10%
- inhibition of growth at 10 µM (NCI-H522): 47.8%
- inhibition of growth at 10 µM (CAKI-1): < 10%
- inhibition of growth at 10 µM (OVCAR-4): 12.5%
- inhibition of growth at 10 µM (SNB-75): 18.4%
- inhibition of growth at 10 µM (SK-MEL-5): 12%
- inhibition of growth at 10 µM (LOX IMVI): 29.7%
- inhibition of growth at 10 µM (NCI-H460): < 10%
- inhibition of growth at 10 µM (HL-60(TB)): < 10%
- inhibition of growth at 10 µM (PC-3): 21.1%
- inhibition of growth at 10 µM (HCT-15): 35%
- inhibition of growth at 10 µM (HCT-116): 44.4%
- inhibition of growth at 10 µM (T47D): < 10%
- inhibition of growth at 10 µM (TK-10): < 10%
- inhibition of growth at 10 µM (SF-268): < 10%
- inhibition of growth at 10 µM (NCI/ADR-RES): < 10%
- inhibition of growth at 10 µM (SW-620): 13.4%
- inhibition of growth at 10 µM (SR): 59%
- inhibition of growth at 10 µM (SK-MEL-2): < 10%
- inhibition of growth at 10 µM (NCI-H226): < 10%
- inhibition of growth at 10 µM (UO-31): 13.7%
- inhibition of growth at 10 µM (SK-MEL-28): < 10%
